Common to all, as to experiment: DTP human tumour cell line panel, 48 h
For assay [1], the system named is SR.
The subject of assay [2] is Hs-578T.
Assay [3] relates to M14.
The test system of assay [4] is LOX IMVI.
Assay [5] relates to TK-10.
The subject of assay [6] is OVCAR-4.
Assay [7] concerns SNB-19.
Assay [8] concerns SF-268.
The test system of assay [9] is Malme-3M.
Assay [10] deals with HOP-92.
The subject of assay [11] is OVCAR-3.
Assay [12] has as its system PC-3.
Assay [13] concerns UO-31.
In assay [14] the test system is T47D.
For assay [15], the system named is SF-295.
Assay [16] has as its system 786-0.
In assay [17] the test system is SK-MEL-5.
Assay [18] relates to BT-549.
Assay [19] relates to NCI-H522.
Assay [20] concerns SN12C.

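Dose response: 5 concentrations. Exposure: 48 h. Format: 96-well plates. Endpoint: linear interpolation; highest concentration if not reached. GI50 is the concentration that inhibits growth by half.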 The source made the active and inactive calls. No stated cut-off is given here; in the data, active = GI50 up to about 1.1 µM and inactive = higher.

The term GI50 denotes the concentration giving 50% growth inhibition. As for `Clc1ccc(Nc2nc(Cl)c3nc[nH]c3n2)cc1Cl`, the GI50 in assay [1] is 19.2 µM (inactive); in [2] it was 22.1 µM (inactive); in assay [3] it was 36.7 µM (inactive); in assay [4], 13.4 µM (inactive); in [5] it was 32.4 µM (inactive); in assay [6] it was 52.7 µM (inactive). Further, the GI50 in assay [7] is 37.2 µM (inactive); in [8] it was 22.1 µM (inactive); in [9], 32.3 µM (inactive); in [10], 23.4 µM (inactive); in [11], 19.1 µM (inactive); in assay [12] it was 14.7 µM (inactive). Moreover, the GI50 in [13] was 26.9 µM (inactive); in assay [14] it was 14.2 µM (inactive); in assay [15] it was 23.7 µM (inactive); in [16] it was 15.8 µM (inactive); in assay [17], 20.1 µM (inactive); in assay [18], 15.6 µM (inactive). The GI50 in assay [19] is 18.7 µM (inactive); in [20], 43.8 µM (inactive).

With `Clc1ccc(-c2ccc(-c3nn4c(CNc5ccccc5)nnc4s3)o2)c(Cl)c1`, the GI50 in assay [1] is 27.5 µM (inactive); in assay [2] it was > 100 µM (inactive); in assay [3], 93.3 µM (inactive); in assay [4], > 100 µM (inactive); in assay [5], > 100 µM (inactive); in assay [6], > 100 µM (inactive). Further, the GI50 is > 100 µM (inactive) in assay [7]; > 100 µM (inactive) in [8]; > 100 µM (inactive) in assay [9]; 29.2 µM (inactive) in assay [10]; 45.2 µM (inactive) in assay [11]; 54.2 µM (inactive) in assay [12]. Besides, the GI50 in assay [13] was > 100 µM (inactive); in [14], 13.5 µM (inactive); in assay [15], 60.1 µM (inactive); in assay [16] it was > 100 µM (inactive); in [17], 33.4 µM (inactive); in [18], > 100 µM (inactive). Besides, the GI50 was 57.8 µM (inactive) in assay [19] and > 100 µM (inactive) in assay [20].

As to `Cc1cccc(/C=N/NC(=S)NCCc2ccccn2)n1`, the GI50 was 28.4 µM (inactive) in assay [1]; 53.5 µM (inactive) in assay [2]; 16.7 µM (inactive) in assay [3]; 18.3 µM (inactive) in assay [4]; 71.4 µM (inactive) in assay [5]; 42.2 µM (inactive) in [6]. Further, the GI50 in assay [7] was 37.1 µM (inactive); in [8], 19.6 µM (inactive); in [9], 47.6 µM (inactive); in assay [10], 22.3 µM (inactive); in [11], 48 µM (inactive); in assay [12], 35.2 µM (inactive). Also, the GI50 was 16.9 µM (inactive) in [13]; 37.8 µM (inactive) in assay [14]; 24.6 µM (inactive) in [15]; 23.3 µM (inactive) in assay [16]; 26.1 µM (inactive) in [17]; 35.2 µM (inactive) in assay [18]. Moreover, the GI50 was 34.8 µM (inactive) in [19] and 29.9 µM (inactive) in assay [20].

With `Cc1ccc(/C=C/C(=O)c2c([O-])on[n+]2-c2ccccc2)cc1`, the GI50 was 2.9 µM (inactive) in assay [1]; 2.47 µM (inactive) in assay [2]; 2.34 µM (inactive) in assay [3]; 1.88 µM (inactive) in assay [4]; 2.95 µM (inactive) in assay [5]; 3.1 µM (inactive) in assay [6]. Moreover, the GI50 in assay [7] is 3.98 µM (inactive); in assay [8] it was 4.35 µM (inactive); in assay [9] it was 5.42 µM (inactive); in assay [10], 4.52 µM (inactive); in assay [11] it was 3.1 µM (inactive); in assay [12], 4.72 µM (inactive). Besides, the GI50 is 2.62 µM (inactive) in assay [13]; 2.84 µM (inactive) in assay [14]; 7.74 µM (inactive) in assay [15]; 1.83 µM (inactive) in [16]; 3.71 µM (inactive) in assay [17]; 2.72 µM (inactive) in [18]. Moreover, the GI50 in assay [19] was 2.61 µM (inactive); in assay [20], 3.79 µM (inactive).

As for `O=C(c1c(F)c(F)c(F)c(F)c1F)c1c(F)c(F)c(F)c(F)c1F`, the GI50 in assay [1] was 0.174 µM (active); in assay [2] it was 2.69 µM (inactive); in [3] it was 2.1 µM (inactive); in assay [4], 0.71 µM (active); in assay [5], 1.19 µM (inactive); in assay [6], 1.75 µM (inactive). Moreover, the GI50 in assay [7] is 4.06 µM (inactive); in assay [8], 2.55 µM (inactive); in [9], 1.52 µM (inactive); in [10] it was 1.83 µM (inactive); in assay [11], 0.979 µM (active); in assay [12], 1.62 µM (inactive). For the same compound, the GI50 in assay [13] is 1.23 µM (inactive); in assay [14] it was 1.69 µM (inactive); in [15], 2.55 µM (inactive); in assay [16], 0.476 µM (active); in assay [17], 2.82 µM (inactive); in [18], 2.46 µM (inactive). The GI50 in assay [19] is 0.182 µM (active); in assay [20] it was 1.87 µM (inactive).

`O=C1CSC(c2cc3cc(Br)ccc3nc2Cl)N1c1ccc(Cl)cc1` (stereo not given): the GI50 in assay [1] is 15.1 µM (inactive); in assay [2], 35.9 µM (inactive); in [3], 21.1 µM (inactive); in assay [4], 16.1 µM (inactive); in assay [5] it was 29.6 µM (inactive); in assay [6], 23.2 µM (inactive). Moreover, the GI50 in [7] was 42.7 µM (inactive); in assay [8], 22.2 µM (inactive); in assay [9], 25.7 µM (inactive); in [10], 37.2 µM (inactive); in assay [11] it was 16.7 µM (inactive); in assay [12], 41.2 µM (inactive). The GI50 in assay [13] is 32.3 µM (inactive); in assay [14], 21 µM (inactive); in assay [15], 12.9 µM (inactive); in assay [16], 35.6 µM (inactive); in assay [17], 14 µM (inactive); in [18], 26.8 µM (inactive). Also, the GI50 in assay [19] was 17.8 µM (inactive); in [20] it was 20.2 µM (inactive).

On to `COc1ccc(-c2cc(-c3ccccc3)n(C3OC(COC(C)=O)C(OC(C)=O)C(OC(C)=O)C3OC(C)=O)c(=S)c2C#N)cc1` (stereo not given), for which the GI50 in assay [1] was 13.6 µM (inactive); in assay [2] it was 5.71 µM (inactive); in [3] it was 8 µM (inactive); in [4], 4.51 µM (inactive); in assay [5], 25.9 µM (inactive); in assay [6], 2.6 µM (inactive). For the same compound, the GI50 in assay [7] was 11.1 µM (inactive); in assay [8] it was 14.2 µM (inactive); in assay [9] it was 5.87 µM (inactive); in assay [10], 4.39 µM (inactive); in assay [11], 11.4 µM (inactive); in [12], 12.4 µM (inactive). Also, the GI50 was 9.08 µM (inactive) in assay [13]; 4.69 µM (inactive) in assay [14]; 5.47 µM (inactive) in assay [15]; 3.44 µM (inactive) in assay [16]; 6.71 µM (inactive) in assay [17]; 12.4 µM (inactive) in assay [18]. For the same compound, the GI50 in assay [19] was 5.37 µM (inactive); in assay [20], 9.79 µM (inactive).

`Cn1cnc([N+](=O)[O-])c1Sc1nc(N)nc2c1ncn2C1OC(CO)C(O)C1O` (stereo not given): the GI50 in assay [1] is 1.53 µM (inactive); in assay [2], 1.97 µM (inactive); in assay [3], 2.28 µM (inactive); in assay [4], 1.09 µM (active); in assay [5], 6.76 µM (inactive); in assay [6], 16.4 µM (inactive). Moreover, the GI50 was 44.6 µM (inactive) in assay [7]; 4.44 µM (inactive) in assay [8]; 17.8 µM (inactive) in assay [9]; 1.33 µM (inactive) in assay [10]; 4.9 µM (inactive) in assay [11]; 1.52 µM (inactive) in assay [12]. Also, the GI50 in assay [13] was 5.12 µM (inactive); in assay [14], 5.38 µM (inactive); in assay [15], 3.46 µM (inactive); in assay [16], 3.14 µM (inactive); in [17], 6.22 µM (inactive); in assay [18], 8.41 µM (inactive). Also, the GI50 is 9.38 µM (inactive) in assay [19] and 7.11 µM (inactive) in [20].

In the case of `O=C(CCN1CCCC1)Nc1ccc2sc3ccccc3c(=O)c2n1`, the GI50 in assay [1] is 8.89 µM (inactive); in [2], 11.8 µM (inactive); in assay [3], 13.2 µM (inactive); in assay [4], > 10 µM (inactive); in [5], > 10 µM (inactive); in assay [6], 13.2 µM (inactive). Besides, the GI50 in [7] is 13.1 µM (inactive); in assay [8], 17.2 µM (inactive); in assay [9] it was 13.1 µM (inactive); in [10] it was 18.1 µM (inactive); in assay [11], 14.5 µM (inactive); in [12] it was 13.5 µM (inactive). Besides, the GI50 in [13] is 11.7 µM (inactive); in assay [14], 19.2 µM (inactive); in assay [15], 14.8 µM (inactive); in assay [16] it was 11.7 µM (inactive); in assay [17] it was 11.8 µM (inactive); in assay [18], 13.6 µM (inactive). The GI50 in assay [19] is 10.5 µM (inactive); in [20], 10.1 µM (inactive).

The values are drawn from ChEMBL document CHEMBL1201862, “PubChem BioAssay data set” (2004).
